According to patent US20110142866A1, “PEPTIDE ANALOGUES AND CONJUGATES THEREOF” (Eldrug S.A., priority 2007, published 2011):
“Also recorded” adds a separate entry of the source.

Tests used:
[1] = system: native bovine MBP protein; assay: ELISA cross reaction of sera with native MBP protein; assay type: in vivo; set-up: key to Cross reaction with native MBP / Ab Cross reaction with native MBP: −: negative; +/−: very weak; +: weak; ++: moderate; +++: strong; conditions: for Ab Cross reaction with native MBP: Table 3, peptide analogues emulsified in complete Freund's adjuvant; for cross reaction of sera with native MBP protein (in words): peptide conjugated to reduced mannan, 1/200 and 1/1,600 sera dilution; for Cross reaction with native MBP: Table 2, peptide analogues conjugated to reduced mannan-KLH
Experimental: Blood was collected and sera isolated from mice prior to and 2 weeks after immunization. MBP83-99 peptides conjugated to BSA were coated onto polyvinyl chloride (PVC) microtiter plates at 10 μg/ml or with 2.5 μg/ml native MBP bovine protein in 0.2 M NaHCO3 buffer, pH 9.6, overnight at 4′C and non-specific binding was blocked with 2% BSA for 1.0 hour at room temperature. After washing (0.05% Tween 20/PBS), serial dilutions of sera were added and incubated for a further 2.0 hours at room temperature. The plates were washed and bound antibody was detected using HRP-conjugated sheep anti-mouse antibody (1:1000 in PBS) (Amersham, UK) and developed using 2,2″-azino-di(3-ethylbenzthiazoline) sulphonate (ABTS) (Sigma, UK). Absorption at 405 nm was recorded using an ELISA microplate reader.

[2] = system: IFN-γ production induced by the native MBP83-99 peptide; assay: In vitro IFN-γ antagonism ELISpot; assay type: cell-based, SJL/J mice; set-up: key to Antagonism: −: negative; +/−: very weak; +: weak; ++: moderate; +++: strong; conditions: for Antagonism: Table 3, complete Freund's adjuvant
Experimental: Mice were immunized with native MBP83-99 peptide emulsified in CFA, and spleen cells were isolated 25 days later. The ability of cyclic mutant MBP83-99 peptide analogues to antagonize IFN-γ production was assessed by ELISpot analysis. The native MBP83-99 peptide was added together with cyclic mutated MBP83-99 analogues, and % IFN-γ inhibition is shown.
ELISpot assays are an ex vivo 18 h assay that measures IFN-γ secretion by T cells. […] The sensitivity of the assay is higher than limiting dilution analysis, FACscan analysis, or ELISA methods and can reliably detect precursor frequencies of antigen specific effectors of 1 in every 0.5 million cells. It is therefore an appropriate method to detect antigen specific cells. Here, we measured IFN-γ production generated by the native MBP83-99 peptide and assessed the % inhibition (antagonize) of IFN-γ produced in the presence of mutant peptide analogues.
Cyclic head-to-tail MBP83-99 single and double mutant analogues were tested for their ability to inhibit IFN-γ responses induced by the native agonist MBP83-99 peptide. Mice were immunized with the native agonist MBP83-99 peptide emulsified in complete Freund's adjuvant (CFA). Spleen cells were isolated 25 days later, and the ability of cyclic peptides to inhibit (antagonize) IFN-γ production was assessed in in vitro antagonism ELISpot assays (FIG. 8). The results are shown as % IFN-γ inhibition of each cyclic mutant peptide analogue, in comparison to the native MBP83-99 peptide alone. All cyclic peptide analogues inhibited IFN-γ production between 30% and 90%. […] However, the single mutant analogue cyclo(83-99)[A^91]MBP83-99 was the most efficient in inhibiting IFN-γ production induced by the native MBP83-99 peptide, up to 92%. On the basis of the ability of cyclo(83-99)[A^91]MBP83-99 peptide to inhibit (antagonize) IFN-γ production by T cells, we chose to examine its in vivo efficacy in SJL/J mice after emulsification in CFA or conjugation to reduced mannan.

Row | Compound | Ab Cross reaction with native MBP [1] | cross reaction of sera with native MBP protein (in words) [1] | Antagonism [2] | Cross reaction with native MBP [1] | cross reaction of sera with native MBP protein (in words) ([1]; listed as [A^91, R^96]MBP83-99) | % IFN-γ inhibition ([2]; spleen cells of mice immunized with native MBP83-99 in CFA, 25 days, cyclic analogue added together with native MBP83-99)
1 | CC[C@H](C)[C@@H]1NC(=O)[C@H](CC(N)=O)NC(=O)[C@H](CCCCN)NC(=O)[C@H](Cc2ccccc2)NC(=O)[C@H](Cc2ccccc2)NC(=O)[C@H](Cc2c[nH]cn2)NC(=O)[C@H](C(C)C)NC(=O)[C@H](C(C)C)NC(=O)[C@@H]2CCCN2C(=O)[C@H](CC(N)=O)NC(=O)[C@H](CCC(=O)O)NC(=O)[C@@H]2CCCN2C(=O)[C@H]([C@@H](C)O)NC(=O)[C@H](CCCNC(=N)N)NC(=O)[C@@H]2CCCN2C(=O)[C@H]([C@@H](C)O)NC(=O)[C@H](C(C)C)NC1=O [cyclo(83-99)MBP83-99, cyclo(83-99)E N P V V H F F K N I V T P R T P] | − | highly cross reacted |  |  |  | 
2 | E N P V V H F F A N I V T P R T P (ENPVVHFFANIVTPRTP) [[A^91]MBP83-99] | ++ | reacted moderately; also recorded: cross reacted weakly | ++ | + |  | 
3 | E N P V V H F F E N I V T P R T P (ENPVVHFFENIVTPRTP) [[E^91]MBP83-99] | − | reacted moderately; also recorded: cross reacted weakly | ++ | + |  | 
4 | E N P V V H F F F N I V T P R T P (ENPVVHFFFNIVTPRTP) [[F^91]MBP83-99] | − | did not react | ++ | − |  | 
5 | E N P V V H F F K N I V T P R T P (ENPVVHFFKNIVTPRTP) [MBP83-99, reference compound] | − | highly cross reacted; also recorded: cross reactive |  | +++ |  | 
6 | E N P V V H F F R N I V T A R T P (ENPVVHFFRNIVTARTP) [[R^91, A^96]MBP83-99] | − | cross reactive | ++ | +++ | highly cross reacted | 
7 | E N P V V H F F Y N I V T P R T P (ENPVVHFFYNIVTPRTP) [[Y^91]MBP83-99] | − | did not cross react | ++ | − |  | 
8 | cyclo(83-99)E N P V V H F F A N I V T P R T P (ENPVVHFFANIVTPRTP; cyclised or stapled) [cyclo(83-99)[A^91]MBP83-99] | − | reacted moderately | ++ | + |  | up to 92%
